For this assay, the target named is T1, BRAF V600E (Homo sapiens, UniProt P15056, V600E).
T1 construct: endogenous C-terminal HiBiT fusion tag on BRAF V600E allele; endogenous in cells; host or cells: A375 clone 1F10 (CRISPR-Cas9 knock-in of the HiBiT tag; parental A375 from ATCC)
In words: BRAF HiBiT degradation assay, C-terminal HiBiT-tagged BRAF V600E A375 cells (clone 1F10), Nano-Glo HiBiT Lytic assay. It counts as cell-based. The note with it: A375 (BRAF V600E); for DC50: DC50 at 50%: fitted conc. at Y=50; for Dmax: A-375, percentage protein degraded at maximal compound effect relative to DMSO. The source says: An A375 cell line expressing a homozygous V600E mutation was purchased from ATCC (Manassas, VA, USA). An A375 clone 1F10 cell line with an endogenous C-terminal HiBiT fusion tag on BRAF V600E allele was generated internally using CRISPR-Cas9 technology and cultured in DMEM, high glucose supplemented with 10% FBS and 1× GlutaMAX. A HCT-116 BRAF−/− cell line overexpressing the C-terminal HiBiT-tagged G466V, G469A, and D594G mutants were generated by lentiviral transduction, externally at Biosettia Inc (San Diego, CA, USA). The stably transfected cells were cultured in RPMI media supplemented with 10% FBS, 1× GlutaMAX, and 0.25 μg/ml puromycin. DMEM medium, RPMI 1640 medium, GlutaMAX, fetal bovine serum (FBS), and puromycin were purchased from Gibco (Grand Island, NY, USA). HCT-116 BRAF−/− cells were purchased from Horizon Discovery (Waterbeach, UK).
The C-terminal HiBiT tagged BRAF A375 cells (monoclonal cell line, cell clone 1F10) were seeded at a density of 10,000 cells/well in 30 μL media (DMEM, high glucose supplemented with 10% FBS and 1× GlutaMAX) in white opaque 384-well plates (Corning #3570) from column 1 to column 23. The wildtype A375 cells were seeded in column 24 at the same cell density in 30 μL media. Cells were incubated at 37° C. with 5% CO2 for 24 h.
Intermediate compound dilution series (5-point, ranging from 5 mM to 0.5 μM, 10-fold dilutions in DMSO) were prepared in a source plate (Beckman Coulter cat. no. 001-16128). Final compound dilution series (11-point, ranging from 1 μM to 0.01 nM, half-log dilutions in DMSO) were stamped into the assay plate (Corning #3570, column 1-11 and 12-22) using the Echo Acoustic Liquid Handler (Beckman Coulter). Each compound was plated in duplicate, and the total volume of compound DMSO solution was 60 nL/well (0.2% final DMSO concentration). DMSO was included in wells A23-L23 and A24-L24. The DMSO-treated HiBiT-tagged samples served as Negative Control (NC) and the DMSO-treated wildtype samples served as Background Control (BC) for the HiBiT assay.
HiBiT signal was measured by a Nano-Glo HiBiT Lytic assay (Promega cat. no. N3050). HiBiT lytic detection reagent (Nano-Glo HiBiT Lytic Buffer with 1:50 Nano-Glo HiBiT Lytic Substrate and 1:100 LgBiT Protein, 40 μL) was added using Bravo. The mixture was incubated at room temperature, in the dark, and with gentle shaking for 10 min. Luminesce units (LU) were read on an EnVision plate reader 2105 (Perkin Elmer).
Percent protein remaining and viability remaining per sample were calculated as follows: […]
% Protein remaining values were plotted as a function of compound concentration. XC50 (DC50) values were determined by fitting curves using the following equation:
For the HiBiT degradation assay, the key parameters reported include: • The dose of compound that produces 50% degradation (DC50 at 50%): • DC50 at 50%: the Fitted X value (Conc.) at Y=50 (response) • Observed Dmax (Obs. Dmax) is the percentage protein degraded at maximal compound effect relative to DMSO-treated control: […]
A general note: HiBiT is a short tag that completes a luciferase, so light tracks the accessible tagged protein.

In general, DC50 refers to the concentration at which degradation of the target reaches its halfway point. Read a high DC50 as a less potent degrader. In general, Dmax refers to the greatest extent of degradation seen. A high value points to deep degradation.

T1 sequence (P15056 whole entry V600E, the tested form may be a part): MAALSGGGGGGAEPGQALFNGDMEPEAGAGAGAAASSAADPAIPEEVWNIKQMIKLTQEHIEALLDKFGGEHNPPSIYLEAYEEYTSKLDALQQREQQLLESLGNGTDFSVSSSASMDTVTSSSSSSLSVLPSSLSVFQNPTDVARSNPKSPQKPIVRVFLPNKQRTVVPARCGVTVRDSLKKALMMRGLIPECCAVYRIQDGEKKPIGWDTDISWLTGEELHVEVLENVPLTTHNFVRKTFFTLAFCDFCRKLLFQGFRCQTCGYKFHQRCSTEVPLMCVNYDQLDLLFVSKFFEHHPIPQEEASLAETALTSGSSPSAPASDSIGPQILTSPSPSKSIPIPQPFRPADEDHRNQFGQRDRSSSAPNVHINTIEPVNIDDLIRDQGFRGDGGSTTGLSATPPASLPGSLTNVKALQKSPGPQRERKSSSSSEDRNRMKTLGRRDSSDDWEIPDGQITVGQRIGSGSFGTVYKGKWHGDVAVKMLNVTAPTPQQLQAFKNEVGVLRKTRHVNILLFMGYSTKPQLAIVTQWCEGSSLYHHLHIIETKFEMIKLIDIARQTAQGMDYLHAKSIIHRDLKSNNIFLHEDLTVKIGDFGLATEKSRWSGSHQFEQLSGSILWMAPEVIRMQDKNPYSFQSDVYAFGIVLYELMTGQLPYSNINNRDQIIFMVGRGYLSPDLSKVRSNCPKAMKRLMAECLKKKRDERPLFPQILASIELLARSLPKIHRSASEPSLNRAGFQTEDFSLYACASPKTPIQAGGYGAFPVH

For `CCCS(=O)(=O)Nc1cccc(-c2nc(C(C)(C)C)sc2-c2ccnc(NC3CC4(C3)CN(C(=O)CN3CCN(CCCc5cccc6c5C(=O)N(C5CCC(=O)NC5=O)C6=O)CC3)C4)n2)c1F` (racemic) [Compound 148, Rac-N-[3-(2-tert-butyl-5-{2-[(2-{2-[4-(3-{2-[(3R)-2,6-dioxopiperidin-3-yl]-1,3-dioxo-2,3-dihydro-1H-isoindol-4-yl}propyl)piperazin-1-yl]acetyl}-2-azaspiro[3.3]heptan-6-yl)amino]pyrimidin-4-yl}-1,3-thiazol-4-yl)-2-fluorophenyl]propane-1-sulfonamide], the DC50 was > 500 nM and the maximal degradation (Dmax) is 30 to 70%.

Take `CCCS(=O)(=O)Nc1cccc(-c2nc(C(C)(C)C)sc2-c2ccnc(NC3CCN(C4CCN(CC5CCN(c6ccc(C7CCC(=O)NC7=O)cn6)CC5)CC4)CC3)n2)c1F` (racemic) [Compound 136, Rac-N-(3-{2-tert-butyl-5-[2-({1′-[(1-{5-[(3R)-2,6-dioxopiperidin-3-yl]pyridin-2-yl}piperidin-4-yl)methyl]-[1,4′-bipiperidin]-4-yl}amino)pyrimidin-4-yl]-1,3-thiazol-4-yl}-2-fluorophenyl)propane-1-sulfonamide]: the DC50 lay within 50 to 500 nM and the Dmax lay in the range of 30 to 70%.

For `CCCS(=O)(=O)Nc1cccc(-c2nc(C(C)(C)C)sc2-c2ccnc(NC3CC4(C3)CN(C(=O)CCCCCc3ccc5c(c3)C(=O)N(C3CCC(=O)NC3=O)C5)C4)n2)c1F` (racemic) [Compound 150, Rac-N-{3-[2-tert-butyl-5-(2-{[2-(6-{2-[(3R)-2,6-dioxopiperidin-3-yl]-3-oxo-2,3-dihydro-1H-isoindol-5-yl}hexanoyl)-2-azaspiro[3.3]heptan-6-yl]amino}pyrimidin-4-yl)-1,3-thiazol-4-yl]-2-fluorophenyl}propane-1-sulfonamide], the DC50 lay within 50 to 500 nM and the Dmax was 30 to 70%.

As to `CCCS(=O)(=O)Nc1cccc(-c2cn(-c3ccc(OC4CCN(C(=O)C5CCN(c6ccc(C7CCC(=O)NC7=O)cn6)CC5)CC4)cc3)nc2-c2ccncc2)c1F` (racemic) [Compound 5, Rac-N-{3-[1-(4-{[1-(1-{5-[(3R)-2,6-dioxopiperidin-3-yl]pyridin-2-yl}piperidine-4-carbonyl)piperidin-4-yl]oxy}phenyl)-3-(pyridin-4-yl)-1H-pyrazol-4-yl]-2-fluorophenyl}propane-1-sulfonamide], the DC50 was 50 to 500 nM and the Dmax is 30 to 70%.

In the case of `CCCS(=O)(=O)Nc1cccc(-c2nc(C(C)(C)C)sc2-c2ccnc(Nc3ccc(C4CCN(C(=O)C5CCN(c6cccc7c6n(C)c(=O)n7C6CCC(=O)NC6=O)CC5)CC4)cc3)n2)c1F` (racemic) [Compound 161, Rac-N-(3-{2-tert-butyl-5-[2-({4-[1-(1-{1-[(3R)-2,6-dioxopiperidin-3-yl]-3-methyl-2-oxo-2,3-dihydro-1H-1,3-benzodiazol-4-yl}piperidine-4-carbonyl)piperidin-4-yl]phenyl}amino)pyrimidin-4-yl]-1,3-thiazol-4-yl}-2-fluorophenyl)propane-1-sulfonamide], the DC50 was 10 to 50 nM and the Dmax was 30 to 70%.

For `CCCS(=O)(=O)Nc1cccc(-c2nc(C)sc2-c2ccnc(Nc3ccc(N4CCN(CC5(F)CCN(c6ccc(C7CCC(=O)NC7=O)cc6)CC5)CC4)cc3)n2)c1F` (racemic) [Compound 31, Rac-N-[3-(5-{2-[(4-{4-[(1-{4-[(3R)-2,6-dioxopiperidin-3-yl]phenyl}-4-fluoropiperidin-4-yl)methyl]piperazin-1-yl}phenyl)amino]pyrimidin-4-yl}-2-methyl-1,3-thiazol-4-yl)-2-fluorophenyl]propane-1-sulfonamide], the DC50 lay within 10 to 50 nM and the Dmax was > 70%.

As for `CCCS(=O)(=O)Nc1cccc(-c2nc(C(C)(C)C)sc2-c2ccnc(Nc3ccc(C4CCN(C(=O)COc5ccc6c(c5)C(=O)N(C5CCC(=O)NC5=O)C6=O)CC4)cc3)n2)c1F` (racemic) [Compound 176, Rac-N-[3-(2-tert-butyl-5-{2-[(4-{1-[2-({2-[(3R)-2,6-dioxopiperidin-3-yl]-1,3-dioxo-2,3-dihydro-1H-isoindol-5-yl}oxy)acetyl]piperidin-4-yl}phenyl)amino]pyrimidin-4-yl}-1,3-thiazol-4-yl)-2-fluorophenyl]propane-1-sulfonamide], the DC50 was in the range of 10 to 50 nM and the Dmax fell in the range of 30 to 70%.

For the compound `CCCS(=O)(=O)Nc1cccc(-c2nc(C(C)(C)C)sc2-c2ccnc(Nc3ccc4c(c3)CCN(C(=O)C3CCN(c5ccc(C(=O)NC6CCC(=O)NC6=O)nc5)CC3)C4)n2)c1F` (racemic) [Compound 122, Rac-5-(4-{6-[(4-{2-tert-butyl-4-[2-fluoro-3-(propane-1-sulfonamido)phenyl]-1,3-thiazol-5-yl}pyrimidin-2-yl)amino]-1,2,3,4-tetrahydroisoquinoline-2-carbonyl}piperidin-1-yl)-N-[(3R)-2,6-dioxopiperidin-3-yl]pyridine-2-carboxamide], the Dmax was 30 to 70%.

For the compound `CCCS(=O)(=O)Nc1cccc(-c2nc(C(C)(C)C)sc2-c2ccnc(Nc3cnn(CC4CCN(CC[C@@H]5CCN(c6ccc(C7CCC(=O)NC7=O)cn6)C5)CC4)c3)n2)c1F` (mixture of isomers) [Compound 81, N-(3-{2-tert-butyl-5-[2-({1-[(1-{2-[(3R)-1-{5-[(3RS)-2,6-dioxopiperidin-3-yl]pyridin-2-yl}pyrrolidin-3-yl]ethyl}piperidin-4-yl)methyl]-1H-pyrazol-4-yl}amino)pyrimidin-4-yl]-1,3-thiazol-4-yl}-2-fluorophenyl)propane-1-sulfonamide], the DC50 was 10 to 50 nM and the Dmax was > 70%.

`CCCS(=O)(=O)Nc1cccc(-c2nc(C(C)(C)C)sc2-c2ccnc(N[C@H]3CC[C@H](N4CCN(CC5CCN(c6ccc(C7CCC(=O)NC7=O)cn6)CC5)CC4)CC3)n2)c1F` (mixture of isomers) [Compound 135, N-{3-[2-tert-butyl-5-(2-{[(1r,4r)-4-{4-[(1-{5-[(3RS)-2,6-dioxopiperidin-3-yl]pyridin-2-yl}piperidin-4-yl)methyl]piperazin-1-yl}cyclohexyl]amino}pyrimidin-4-yl)-1,3-thiazol-4-yl]-2-fluorophenyl}propane-1-sulfonamide] showed a DC50 of 50 to 500 nM and a Dmax of 30 to 70%.

On to `CCCS(=O)(=O)Nc1cccc(-c2nc(C(C)(C)C)sc2-c2ccnc(Nc3ccc(C4CCN(CC5CCN(c6ccc([C@@H]7CCC(=O)NC7=O)cc6)CC5)CC4)cc3)n2)c1F` [Compound 90, N-[3-(2-tert-butyl-5-{2-[(4-{1-[(1-{4-[(3S)-2,6-dioxopiperidin-3-yl]phenyl}piperidin-4-yl)methyl]piperidin-4-yl}phenyl)amino]pyrimidin-4-yl}-1,3-thiazol-4-yl)-2-fluorophenyl]propane-1-sulfonamide], for which the DC50 is 10 to 50 nM and the Dmax is 30 to 70%.

`CCCS(=O)(=O)Nc1cccc(-c2nc(C(C)(C)C)sc2-c2ccnc(Nc3cnn(CC4CCN(C(=O)CN5CCN(c6cc(C7CCC(=O)NC7=O)ccn6)CC5)CC4)c3)n2)c1F` (racemic) [Compound 113, Rac-N-{3-[2-tert-butyl-5-(2-{[1-({1-[2-(4-{4-[(3R)-2,6-dioxopiperidin-3-yl]pyridin-2-yl}piperazin-1-yl)acetyl]piperidin-4-yl}methyl)-1H-pyrazol-4-yl]amino}pyrimidin-4-yl)-1,3-thiazol-4-yl]-2-fluorophenyl}propane-1-sulfonamide]: the DC50 was in the range of 10 to 50 nM and the Dmax was > 70%.

Source of the values: patent US20260317324A1, “BIFUNCTIONAL COMPOUNDS FOR DEGRADING BRAF VIA UBIQUITIN PROTEOSOME PATHWAY” (Nurix Therapeutics, Inc., priority 2023, published 2026).
